Measured values published in patent US11859208B2, “Methods of treating cancer using cell based therapies” (Emory University, priority 2016, dated 2024).
Entries after “also recorded” stand apart in the source; their conditions may differ.

B1: IL 12: IL-12 added to T cell cultures with anti-CD3/CD28 beads (protein, UniProt P29459 23-219; P29460 23-328, looked up)
Interleukin-12 subunit alpha: RNLPVATPDPGMFPCLHHSQNLLRAVSNMLQKARQTLEFYPCTSEEIDHEDITKDKTSTVEACLPLELTKNESCLNSRETSFITNGSCLASRKTSFMMALCLSSIYEDLKMYQVEFKTMNAKLLMDPKRQIFLDQNMLAVIDELMQALNFNSETVPQKSSLEEPDFYKTKIKLCILLHAFRIRAVTIDRVMSYLNAS
Interleukin-12 subunit beta: IWELKKDVYVVELDWYPDAPGEMVVLTCDTPEEDGITWTLDQSSEVLGSGKTLTIQVKEFGDAGQYTCHKGGEVLSHSLLLLHKKEDGIWSTDILKDQKEPKNKTFLRCEAKNYSGRFTCWWLTTISTDLTFSVKSSRGSSDPQGVTCGAATLSAERVRGDNKEYEYSVECQEDSACPAAEESLPIEVMVDAVHKLKYENYTSSFFIRDIIKPDPPKNLQLKPLKNSRQVEVSWEYPDTWSTPHSYFSLTFCVQVQGKSKREKKDRVFTDKTSATVICRKNASISVRAQDRYYSSSWSEWASVPCS
B2: mast cell chymase: an enzyme that degrades endogenous VIP; human CMA1 (protein, UniProt P23946 22-247, looked up)
Chymase: IIGGTECKPHSRPYMAYLEIVTSNGPSKFCGGFLIRRNFVLTAAHCAGRSITVTLGAHNITEEEDTWQKLEVIKQFRHPKYNTSTLHHDIMLLKLKEKASLTLAVGTLPFPSQFNFVPPGRMCRVAGWGRTGVLKPGSDTLQEVKLRLMDPQACSHFRDFDHNLQLCVGNPRKTKSAFKGDSGGPLLCAGVAQGIVSYGRSDAKPPAVFTRISHYRPWINQILQAN

Experiments:
[1] = system: E.G7-OVA cells; assay: OVA-expressing lymphoma model: adoptive transfer of T cells expanded with the compounds; type: in vivo, mouse; settings: OT-I, OT-II and B6 T cells expanded 3 days with compound, injected intravenously on day 7 of tumor growth
Protocol: Mice were injected subcutaneously with 5×10^5 E.G7-OVA cells which were allowed to grow for 7 days until a palpable tumor formed. During this period, OT-I, OT-II, and B6 T cells were expanded with CD3/CD28 beads in the presence of IL-2 and the indicated compounds for 3 days. On day 7 of tumor growth, mice were injected intravenously with a combination of expanded OT-I, OT-II, and B6 T cells (2×10^6 OT-I, 1×10^6 OT-II, and 2×10^6 B6 cells) or 2×10^6 B6 T cells as a control. Mice were then monitored for tumor growth which was calculated as (L×W2)/2.

[2] = system: senescent T cells from a patient with lymphoma; assay: 10 day in vitro expansion of senescent lymphoma patient T cells with anti-CD3/CD28 beads, flow cytometric analysis; type: cell-based, human; settings: for fraction of senescent T cells that lacked both CD27 and CD28: control 55.2%; for numbers of effector memory T cells (Tem): 10-day cultures; for in vitro expansion of senescent T cells: anti CD3/CD28 beads, single agents or in combination
Protocol: Monocytes were depleted from the T cell sample, as monocytes are known to inhibit T cell expansion in cultures containing anti-CD3/CD28 beads. The effect of a range of idelalisib concentrations were compared alone and in combination with 3 uM VIP peptide antagonist (VIPhyb) or 1 ug/ml mast cell chymase, an enzyme that degrades endogenous VIP on T cell activation, differentiation and proliferation. Numbers of viable T cells were measured during a 10 day in vitro cultures as well as the T cell differentiation and activation profiles, focusing on the relative numbers of T cells with a senescent phenotype in which co-stimulatory receptors CD27 and CD28 are both absent (CD27− CD28−), to an activated phenotype, in which either CD27, CD28, or both co-stimulatory receptors are present (CD27+CD28+).
Aliquots of frozen patient apheresis products or PBMC from ficolled whole blood were rapidly thawed and rested overnight in complete RPMI 1640 supplemented with 10% fetal bovine serum, 100 U/mL penicillin, 100 μg/mL streptomycin, and 50 μM 2-mercaptoethanol (complete media). The following day, red blood cells were removed from apheresis products by ficoll gradient. The leukocytes were then enriched for T cells using an EasySep human T cell enrichment kit according to manufacturer's instructions. Cells were plated in 200 μL of complete media in each well of a 96 well flat-bottom plate. Compounds were added at the indicated concentrations, and the DMSO concentration was normalized to 0.1% for all wells. Anti-CD3/CD28 beads were added at a 1:1 bead:cell ratio. On day 7 post-stimulation, cells from each treatment were transferred to new media. Fresh compounds and beads were then added, and the cells were cultured for an additional 3 days. On day 10 post-initial stimulation, the beads were removed, and the cells were stained for flow cytometric analysis.
Cells were washed twice in PBS. The cells were also stained using a fixable viability dye. Surface markers were then stained by adding fluorochrome-conjugated antibodies to CD3, CD4, CD8, CD27, CD28, CD45RA, CD45RO, PD-1, and CCR7. To assess proliferation, half the cells were evaluated for expression of Ki67. Ki67 staining was performed using a FoxP3 intracellular staining kit. Just prior to running samples, Accucheck counting beads were added to each tube. Samples were acquired on a BD FACS Aria, and analysis was performed using FlowJo software. Viable cells were used in the analysis. The absolute numbers of cells was calculated for each population according to instructions provided by the manufacturer of the Accucheck counting beads.

[3] = system: Bcl-2 in lymphoma patient T cells; assay: Bcl-2 expression in patient T cell expansion cultures (SDS-PAGE, membrane probing); type: cell-based, human; settings: lysates on days 7 and 14, actin loading control
Protocol: Protein lysates from patient T cell expansion cultures were prepared on days 7 and 14. Samples were run on an SDS-PAGE gel prior to transfer to a nitrocellulose membrane. The membrane was then probed for the pro-survival Bcl-2 protein, stripped, and then re-probed for actin as a loading control.

[4] = cited from earlier work
[5] = system: DLBCL patient T cells; assay: DLBCL patient T cell expansion for 14 days with CD3/CD28 beads and IL-2; type: cell-based, human
[6] = cited from earlier work; remark: listed apart in the source
[7] = system: luciferase B6 splenic T cells; assay: One-way mixed lymphocyte reaction (MLR), T-cell proliferation stimulated by alloantigen; type: cell-based, mouse; settings: for T-cell proliferation in MLR: luciferase B6 splenic T cells, 3 days with irradiated FVB splenocytes, daily addition, 0-10 mmol/L
Protocol: Proliferation of luciferase B6 splenic T cells cultured for 3 days in MLR with irradiated FVB splenocytes, with daily addition of VIP and/or VIPhyb to achieve the concentrations shown (0-10 mmol/L).
To explore the role of VIP signaling in allo-immune responses, one-way mixed lymphocyte reactions (MLR) were performed containing VIP and/or the antagonistic VIPhyb peptide.

[8] = system: T-cells from the patient with relapsed lymphoma; assay: Sorted T cells of a relapsed lymphoma patient cultured with anti-CD3/anti-CD28 beads (Ki67, PD-1 flow cytometry); type: cell-based, human; settings: for T-cell proliferation in subsets lacking CD27 or CD28: sorted subsets, anti-CD3/CD28 beads
Excerpt: Using high-speed cell sorting subsets of T-cells were isolated defined by their levels of CD27 and CD28 expression from the patient with relapsed lymphoma and a healthy control. CD3 positive T-cells with each of the four phenotypes defined by CD27 and CD28 expression were sorted and cultured in vitro in the presence of anti-CD3/anti-CD28 beads. While total T-cells from healthy donors had 100% expression of the Ki67 proliferation marker following four days of culture, the corresponding total T-cell population from the patient with anergic T-cells following treatment for lymphoma had only 90% of T-cells expressing the Ki67 marker.
Following the daily addition of 3 uM VIPhyb to these cultures, the proportion of Ki67 positive T-cells from the anergic lymphoma patient was increased to 100%. […] In contrast, the T-cell subsets lacking expression of either CD27 or CD28 or both markers had impaired proliferated response when incubated with the anti-CD3/CD28 beads.

[9] = inclusion during T cell activation

Row | Molecule | therapeutic efficacy of expanded mouse T cells (tumor growth) [1] | numbers of effector memory T cells (Tem) [2] | in vitro expansion of senescent T cells [2] | expression of Bcl-2 [3] | frequency of CD27+CD28+ cells [5] | frequency of CD27-CD28- cells [5] | T-cell proliferation in MLR [7] | T-cell proliferation in subsets lacking CD27 or CD28 [8] | further results
1 | CC[C@H](Nc1ncnc2[nH]cnc12)c1nc2cccc(F)c2c(=O)n1-c1ccccc1 [idelalisib, (S)-2-(1-(9H-purin-6-ylamino)propyl)-5-fluoro-3-phenylquinazolin-4(3H)-one] | enhances their therapeutic efficacy | increased | significantly expanded | increased | increases | decreasing | – | – | fraction of senescent T cells that lacked both CD27 and CD28 ([2]; 10 nM idelalisib): 16.1%; proportion of T cells co-expressing CD27 and CD28 ([2]; idelalisib 1 uM or 100 nM, compared to control cultures with no added drug): significantly increased; adverse signs and symptoms in treated patients ([4]; human, in vivo): auto immune-like signs and symptoms including colitis and rash; anti-cancer responses after drug treatment has stopped ([4]; human, in vivo): continued anti-cancer responses; T-cell activation in patients with CLL ([4]; idelalisib treatment): increased T-cell activation; number of viable T cells obtained [5, 9]: increases; proportion of naive and central memory cells [5, 9]: increases
2 | VIP: (SEQ ID NO: 12) HSDAVFTDNYTRLRKQMAVKKYLNSILN, endogenous polypeptide | – | – | – | – | – | – | decreased Luciferase T-cell proliferation in a dose-dependent manner | – | half-life in vivo [6]: less than two
3 | VIPhyb: VIP receptor antagonist, hybrid peptide of neurotensin and VIP, (SEQ ID NO: 1) KPRRPYTDNYTRLRKQMAVKKYLNSILN | enhances their therapeutic efficacy | increased | significantly expanded | increased | increases | decreasing | augmented in vitro T-cell proliferation; also recorded: augmented T cell proliferation in vitro; also recorded: increased T-cell proliferation | augmented T-cell proliferation | fraction of senescent T cells that lacked both CD27 and CD28 ([2]; 3 uM VIPhyb): 35.7%; effect on the suppression of T-cell proliferation by VIP ([7]; MLR with VIP and VIPhyb): mitigated the inhibitory effect of the native VIP peptide on T-cell proliferation; also recorded: reversed the suppressive effect of VIP in MLR; PD-1 expression ([8]; 3 uM VIPhyb, compared with control cultures without VIP antagonist): decreased levels of PD-1 expression; proportion of Ki67 positive T-cells ([8]; daily addition of 3 uM VIPhyb, total T-cells of anergic lymphoma patient, anti-CD3/anti-CD28 beads, 90% without VIPhyb): 100%
4 | B1 | – | – | – | – | – | – | – | significant impact in increasing the proliferation fraction of T-cells that were CD28 negative but not those that were CD27 negative | –
5 | B2 | – | – | significantly expanded | – | – | – | – | – | fraction of senescent T cells that lacked both CD27 and CD28 ([2]; 1 μg per ml mast cell chymase): 37.4%
